We go through eleven compounds from ChEMBL document CHEMBL1201862, “PubChem BioAssay data set” (2004).

In experiment [1] the test system is BJ. As to the kind of experiment: BJ-TERT fibroblast viability loss – cell-based, RAS-independent, luminescence, dose response (AID 1933). The format is functional. The settings on record: Homo sapiens.
The target in experiment [2] is T1, Luciferin 4-monooxygenase (Photinus pyralis, UniProt P08659). As to the kind of experiment: Counter Screen for Luciferase-based Assay Positives. [Related pubchem assays: 620, 618, 411 ].
T1 sequence (P08659 whole entry): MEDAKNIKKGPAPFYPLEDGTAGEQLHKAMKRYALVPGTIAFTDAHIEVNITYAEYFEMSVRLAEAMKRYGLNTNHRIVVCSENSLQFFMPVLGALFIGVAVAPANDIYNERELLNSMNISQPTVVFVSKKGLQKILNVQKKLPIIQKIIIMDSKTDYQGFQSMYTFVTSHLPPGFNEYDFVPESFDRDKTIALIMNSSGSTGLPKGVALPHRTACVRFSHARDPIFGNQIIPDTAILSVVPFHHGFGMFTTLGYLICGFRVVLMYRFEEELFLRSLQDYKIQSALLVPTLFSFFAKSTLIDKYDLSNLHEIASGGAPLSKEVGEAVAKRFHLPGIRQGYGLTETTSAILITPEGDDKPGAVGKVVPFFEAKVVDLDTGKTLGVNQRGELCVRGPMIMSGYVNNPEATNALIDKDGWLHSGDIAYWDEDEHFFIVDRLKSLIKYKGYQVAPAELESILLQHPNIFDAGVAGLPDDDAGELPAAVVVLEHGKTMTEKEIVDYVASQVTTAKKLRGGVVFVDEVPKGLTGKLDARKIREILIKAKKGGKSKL
For experiment [3], the system named is BJ. As to the kind of experiment: cells. Type of experiment: functional, cell-based. The note with it: Homo sapiens.
In experiment [4] the target is T1, Luciferin 4-monooxygenase. Put plainly: inhibition of purified Photinus pyralis luciferase – biochemical, luminescence, dose response (AID 1891).
Experiment [5] in a line: Luminescence Cell-Based Dose Confirmation HTS to Identify Inhibitors of Platelet Dense Granule Release. [Related pubchem assays: 1663 (Primary HTS), 1678 (Summary of Project)]. Type of experiment: functional.
The test system of a further experiment is HT-1080. Put plainly: HT1080 cell viability loss – fluorescence readout (AID 620). Type of experiment: functional, cell-based. The note with it: Homo sapiens.
Experiment [6] deals with BJ. As to the kind of experiment: BJ-TERT-LT-ST fibroblast viability loss – cell-based, RAS-independent, luminescence, dose response (AID 1935).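 Note: BJ fibroblasts immortalized with TERT plus LT and ST oncogenes.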 The note with it: Homo sapiens. Type of experiment: functional.
Experiment [7] in a line: DRD fibroblast viability loss – cell-based, non-viral oncogenic, luminescence, dose response (AID 1934). Type of experiment: functional. The settings on record: Homo sapiens.
The target in experiment [8] is Heat shock protein HSP 90-alpha (Homo sapiens, UniProt P07900). The format is functional, organism-based.
For experiment [9], the system named is BJ. As to the kind of experiment: growth inhibition of engineered Ras-driven BJ cells – cell-based, alamar blue fluorescence, cherrypicked samples, dose response (AID 2631).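 Note: confirmatory dose-response assay in RAS-dependent BJ fibroblasts engineered with TERT, LT and ST, with cytotoxicity read by fluorescence.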 Type of experiment: functional. The note with it: Homo sapiens. For orientation: The colour change of resazurin is a common sign of viable cells or microbes.
In experiment [10] the target is T2, Adenosylmethionine-8-amino-7-oxononanoate aminotransferase (Mycobacterium tuberculosis, UniProt P9WQ81).
T2 sequence (P9WQ81 whole entry): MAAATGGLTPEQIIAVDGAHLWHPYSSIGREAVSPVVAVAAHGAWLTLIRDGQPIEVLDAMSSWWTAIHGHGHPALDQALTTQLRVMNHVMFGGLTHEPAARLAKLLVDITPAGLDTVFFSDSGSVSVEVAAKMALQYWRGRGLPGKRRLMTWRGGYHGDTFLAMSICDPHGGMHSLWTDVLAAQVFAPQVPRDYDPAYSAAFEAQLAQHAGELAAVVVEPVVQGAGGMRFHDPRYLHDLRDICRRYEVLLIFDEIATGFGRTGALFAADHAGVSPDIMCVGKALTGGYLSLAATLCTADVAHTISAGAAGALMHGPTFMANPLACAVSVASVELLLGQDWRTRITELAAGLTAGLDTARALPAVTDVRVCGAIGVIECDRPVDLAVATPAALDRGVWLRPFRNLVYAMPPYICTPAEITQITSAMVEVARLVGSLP
Put plainly: Mycobacterium tuberculosis BioA enzyme inhibitor Measured in Biochemical System Using Plate Reader - 2163-02_Inhibitor_Dose_CherryPick_Activity. Type of experiment: functional, Mycobacterium tuberculosis UT205.

For experiment [11], the target named is T3, Carboxy-terminal domain RNA polymerase II polypeptide A small phosphatase 1 (Homo sapiens, UniProt Q9GZU7).
T3 sequence (Q9GZU7 whole entry): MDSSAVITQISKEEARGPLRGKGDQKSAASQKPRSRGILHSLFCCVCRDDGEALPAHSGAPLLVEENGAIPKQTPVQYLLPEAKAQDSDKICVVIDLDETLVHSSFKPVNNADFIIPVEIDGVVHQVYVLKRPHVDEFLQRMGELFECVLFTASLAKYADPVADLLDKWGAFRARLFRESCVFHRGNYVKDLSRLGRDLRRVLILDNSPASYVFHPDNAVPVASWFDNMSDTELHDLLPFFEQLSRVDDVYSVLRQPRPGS
As to the kind of experiment: CTDSP1 inhibitors, concentration-response, biochemical, absorbance readout, ultra-high-throughput screen actives (AID 540297). Type of experiment: functional.

In experiment [12] the target is T4, Low molecular weight phosphotyrosine protein phosphatase (Homo sapiens, UniProt P24666).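 Note: Dose-response confirmation assay measuring inhibition of LMPTP enzyme activity by fluorescence intensity read-out.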
T4 sequence (P24666 whole entry): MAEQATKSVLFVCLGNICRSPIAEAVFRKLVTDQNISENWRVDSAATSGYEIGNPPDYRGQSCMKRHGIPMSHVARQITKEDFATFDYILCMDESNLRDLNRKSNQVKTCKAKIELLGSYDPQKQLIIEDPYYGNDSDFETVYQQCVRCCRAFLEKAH
The format is functional. The settings on record: read-out: IC50_Mean.

Experiment [13] addresses 26S proteasome non-ATPase regulatory subunit 14 (Homo sapiens, UniProt O00487). As to the kind of experiment: inhibition of proteasome subunit RPN11 – biochemical, fluorescence polarization, uHTS hits, confirmation (AID 602368). Type of experiment: functional.
Experiment [14] concerns the target 72 kDa type IV collagenase (Homo sapiens, UniProt P08253). As to the kind of experiment: Dose Response validation of uHTS RPN11 inhibitor hits using a MMP-2 Fluorescence assay. The format is functional.
In the next experiment the target is Prothrombin (Bos taurus, UniProt P00735). As to the kind of experiment: thrombin protease inhibitors – biochemical, fluorescence polarization, uHTS hits, dose response (AID 602369). Type of experiment: functional. In general terms: Fluorescence polarisation rises when a labelled molecule tumbles more slowly, as on binding a larger partner.
A further experiment deals with Large T antigen (Simian virus 40, UniProt P03070). Type of experiment: functional, Betapolyomavirus macacae.
Chain of Large T antigen (P03070 whole entry): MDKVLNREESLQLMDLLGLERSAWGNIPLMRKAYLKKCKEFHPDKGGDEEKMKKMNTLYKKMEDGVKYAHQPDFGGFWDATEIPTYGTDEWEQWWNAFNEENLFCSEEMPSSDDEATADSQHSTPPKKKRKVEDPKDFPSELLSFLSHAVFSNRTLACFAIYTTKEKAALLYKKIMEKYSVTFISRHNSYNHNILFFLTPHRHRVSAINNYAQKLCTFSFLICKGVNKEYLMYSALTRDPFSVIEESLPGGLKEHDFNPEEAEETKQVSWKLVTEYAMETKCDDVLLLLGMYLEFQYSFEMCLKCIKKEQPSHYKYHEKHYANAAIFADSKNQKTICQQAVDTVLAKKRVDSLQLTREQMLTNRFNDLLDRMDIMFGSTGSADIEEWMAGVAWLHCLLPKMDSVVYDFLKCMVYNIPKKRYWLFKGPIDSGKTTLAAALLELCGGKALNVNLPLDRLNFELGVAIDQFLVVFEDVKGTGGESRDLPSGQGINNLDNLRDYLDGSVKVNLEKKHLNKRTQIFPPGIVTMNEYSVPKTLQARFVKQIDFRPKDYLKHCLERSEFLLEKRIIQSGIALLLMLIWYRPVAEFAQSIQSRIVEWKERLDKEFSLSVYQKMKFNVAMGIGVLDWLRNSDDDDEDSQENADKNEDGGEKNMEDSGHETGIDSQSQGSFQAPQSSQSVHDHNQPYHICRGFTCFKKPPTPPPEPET
The target in experiment [15] is T5, Sentrin-specific protease 8 (Homo sapiens, UniProt Q96LD8).
T5 sequence (Q96LD8 whole entry): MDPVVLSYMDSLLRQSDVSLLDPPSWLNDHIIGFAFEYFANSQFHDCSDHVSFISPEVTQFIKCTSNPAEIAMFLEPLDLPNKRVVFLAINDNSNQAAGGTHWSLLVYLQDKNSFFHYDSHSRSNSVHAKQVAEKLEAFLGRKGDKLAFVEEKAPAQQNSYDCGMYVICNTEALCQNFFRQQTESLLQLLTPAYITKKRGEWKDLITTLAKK
The format is functional.

Experiment [16] addresses T5, Sentrin-specific protease 8. Type of experiment: functional. This is another data set of the same source.
Experiment [17] in a line: Luminescence Cell-Based Dose Retest to Confirm Inhibitors of Cancer Stem Cells. [Related pubchem assays (depositor defined):AID2717, AID2721]. Type of experiment: functional. The note with it: Homo sapiens.
In experiment [18] the target is T6, Microphthalmia-associated transcription factor (Homo sapiens, UniProt O75030).
T6 sequence (O75030 whole entry): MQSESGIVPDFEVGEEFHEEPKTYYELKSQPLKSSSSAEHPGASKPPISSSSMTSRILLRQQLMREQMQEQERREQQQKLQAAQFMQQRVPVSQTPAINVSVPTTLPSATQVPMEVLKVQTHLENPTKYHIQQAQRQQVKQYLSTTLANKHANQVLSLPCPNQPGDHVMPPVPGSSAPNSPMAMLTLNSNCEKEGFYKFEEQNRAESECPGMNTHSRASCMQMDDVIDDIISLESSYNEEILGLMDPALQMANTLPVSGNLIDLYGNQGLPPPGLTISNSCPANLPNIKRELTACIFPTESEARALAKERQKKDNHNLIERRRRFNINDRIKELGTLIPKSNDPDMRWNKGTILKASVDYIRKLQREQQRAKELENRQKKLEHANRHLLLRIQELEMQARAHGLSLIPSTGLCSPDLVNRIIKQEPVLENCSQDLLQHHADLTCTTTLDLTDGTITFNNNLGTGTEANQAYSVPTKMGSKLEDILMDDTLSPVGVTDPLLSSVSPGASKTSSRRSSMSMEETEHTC
As to the kind of experiment: reducers of TRPM1 reporter luminescence, concentration series – cell-based, SK-MEL-5, cherry-picked, set 3, MITF inhibitor project, dose response (AID 493073).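 Note: SK-MEL-5 melanoma cells with luciferase driven by the MITF target TRPM1 promoter.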 The format is functional.

Experiment [19] is described as follows: Fluorescence-based cell-based high throughput dose response assay for inhibitors of the interaction of nucleotide-binding oligomerization domain containing 2 (NOD2) and the receptor-interacting serine-threonine kinase 2 (RIPK2). Type of experiment: functional. The settings on record: Homo sapiens.

Molecules are shown by their SMILES. Active and inactive are the calls of the source.

Chain of 26S proteasome non-ATPase regulatory subunit 14 (O00487 whole entry): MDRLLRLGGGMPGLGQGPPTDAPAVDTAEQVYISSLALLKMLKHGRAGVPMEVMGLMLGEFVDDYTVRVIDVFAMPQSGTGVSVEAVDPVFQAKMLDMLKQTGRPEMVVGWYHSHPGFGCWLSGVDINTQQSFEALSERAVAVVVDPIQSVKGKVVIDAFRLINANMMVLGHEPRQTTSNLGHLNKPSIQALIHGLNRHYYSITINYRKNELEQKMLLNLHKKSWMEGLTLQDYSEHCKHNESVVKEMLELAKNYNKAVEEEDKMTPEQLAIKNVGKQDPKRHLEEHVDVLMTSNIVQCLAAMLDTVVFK
Chain of 72 kDa type IV collagenase (P08253 whole entry): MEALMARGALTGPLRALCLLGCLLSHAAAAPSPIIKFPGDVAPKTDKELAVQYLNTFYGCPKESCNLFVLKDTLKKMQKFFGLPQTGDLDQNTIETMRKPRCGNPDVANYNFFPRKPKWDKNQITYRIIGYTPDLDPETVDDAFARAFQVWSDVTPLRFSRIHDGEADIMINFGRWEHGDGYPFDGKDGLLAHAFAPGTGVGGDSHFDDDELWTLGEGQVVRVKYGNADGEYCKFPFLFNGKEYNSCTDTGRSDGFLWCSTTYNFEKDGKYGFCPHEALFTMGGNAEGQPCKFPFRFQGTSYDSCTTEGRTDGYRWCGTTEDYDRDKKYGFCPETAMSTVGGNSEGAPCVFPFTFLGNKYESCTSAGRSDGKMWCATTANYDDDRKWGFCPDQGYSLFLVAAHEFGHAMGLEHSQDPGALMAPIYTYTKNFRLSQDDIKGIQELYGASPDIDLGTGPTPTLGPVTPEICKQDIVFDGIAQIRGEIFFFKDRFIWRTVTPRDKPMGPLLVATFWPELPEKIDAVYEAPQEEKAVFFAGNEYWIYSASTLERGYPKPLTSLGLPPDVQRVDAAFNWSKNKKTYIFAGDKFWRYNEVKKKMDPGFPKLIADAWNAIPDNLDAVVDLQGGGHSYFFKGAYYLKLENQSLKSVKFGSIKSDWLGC

One may read the EC50 as the midpoint of the concentration-response curve. By AC50 is commonly meant the concentration at which the activity in the assay is half-maximal. On to `CCOc1ccc2nc(NC(=O)c3ccoc3C)sc2c1`, for which the EC50 with BJ [1] was 2.43 µM (active); in experiment [2], 6.49 µM (active); in the experiment on BJ [3], 1.79 µM (active); in [4] it was < 0.088 µM (active); in experiment [5], 0.231 µM (active); in the experiment with HT-1080 it was > 50 µM (not active). Further, the results for the concentration giving a half-maximal response (EC50) (in the experiment with BJ [6]; in experiment [7]; with BJ [9]) were 6.32 µM (active), 1.97 µM (active) and > 133 µM (inactive), respectively. In addition, the AC50 in experiment [8] was 2.02 µM (active).

Consider `CC1=CC2=NC(=O)/C(=C\c3cc(C)n(-c4ccccc4F)c3C)C(=N)N2O1`, for which the AC50 in [10] is 0.247 µM (active).

In the case of `O=c1c2cc(-c3ccccc3)sc2nc2n1N=C(c1cccs1)CS2`, the IC50 is 6.3 µM (active) in experiment [11] and 13.7 µM (active) in [12].

For `Cc1cc(C)cc(NC(=O)Cn2nnc(C(=O)NCc3ccc4c(c3)OCO4)c2N)c1`, the IC50 is 22.9 µM (active) in experiment [13], > 100 µM (inactive) in experiment [14] and 72.2 µM (active) at Prothrombin.

`Cc1cc(C)c(S(=O)(=O)N2C[C@H]3CON(C)[C@H]3C[C@H]2c2ccc(N3CCCCC3)cc2)c(C)c1`: the IC50 in experiment [13] was 23.2 µM (active); in [14] it was > 100 µM (inactive); at Prothrombin it was 29.2 µM (active).

Consider `Cc1nc2nc(SCC(=O)N3CCC4(CC3)OCCO4)nn2c(C)c1Cc1ccccc1`, for which, in experiment [10], the AC50 was 2.82 µM (active).

For `COc1ccc(-n2c(/C=C/c3ccc(O)c(O)c3)nc3ccccc3c2=O)cc1`, the IC50 was 55.9 µM (active) on Large T antigen, 9.05 µM (active) in [13], > 100 µM (inactive) in experiment [14] and 6.49 µM (active) on Prothrombin.

Consider `COC/C=C/C1=CC2=CC(=O)C(C)(OC(=O)c3cnc4ccccc4n3)C(=O)C2=CN1Cc1ccccc1` (stereo unspecified), for which the IC50 in experiment [15] was 18.9 µM (active); in experiment [16], 12.7 µM (active).

Consider `COc1ccc(CNc2nc(-c3ccccc3)nc3ccccc23)cc1OC`, for which, in [12], the IC50 is 9.94 µM (active).

For `CC(=O)OCC(=O)[C@@]1(OC(C)=O)[C@@H](C)C[C@H]2[C@@H]3C[C@H](F)C4=CC(=O)C=C[C@]4(C)[C@@]3(F)[C@@H](O)C[C@@]21C` [DIFLORASONE DIACETATE], the AC50 in experiment [10] was 9.06 µM (active).

`O=[N+]([O-])c1cc(S(=O)(=O)N2CCCCCC2)ccc1F`: the AC50 in experiment [17] is 3.09 µM (active); in [18], 9.53 µM (active). Besides, the IC50 in experiment [19] was 1.53 µM (active).
